The values that follow come from ChEMBL document CHEMBL3526078, “Pharmacokinetics and hepatic uptake of eltrombopag, a novel platelet-increasing agent” (Drug Metab Dispos, 2011).

Each structure is given as a SMILES string.

Data set [1] deals with T1, Solute carrier family 22 member 1 (Homo sapiens, UniProt O15245).
T1 sequence (O15245 whole entry): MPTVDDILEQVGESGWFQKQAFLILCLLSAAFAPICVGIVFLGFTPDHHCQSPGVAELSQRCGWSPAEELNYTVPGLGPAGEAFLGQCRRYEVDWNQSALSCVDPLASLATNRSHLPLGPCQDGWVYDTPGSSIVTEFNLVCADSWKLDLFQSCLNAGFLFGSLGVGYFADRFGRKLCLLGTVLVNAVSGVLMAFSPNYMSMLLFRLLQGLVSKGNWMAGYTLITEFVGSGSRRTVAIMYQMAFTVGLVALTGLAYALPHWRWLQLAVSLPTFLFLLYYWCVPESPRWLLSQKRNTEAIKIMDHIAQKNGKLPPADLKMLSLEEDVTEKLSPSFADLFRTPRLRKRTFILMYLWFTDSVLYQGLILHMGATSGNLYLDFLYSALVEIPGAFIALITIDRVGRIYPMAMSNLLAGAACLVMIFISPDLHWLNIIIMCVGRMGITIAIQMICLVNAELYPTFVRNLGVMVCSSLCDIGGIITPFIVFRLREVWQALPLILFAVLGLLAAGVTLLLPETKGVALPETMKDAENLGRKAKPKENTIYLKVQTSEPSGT
The experiment in a line: Inhibition of OCT1-mediated [14C]tetraethylammonium uptake in human OCT1 expressing HEK293/PDZK1 cells by scintillation counting. To be noted: human, hek293/pdzk1. Type of data set: ADME, cell-based.

In the next data set the test system is Kidney. The experiment in a line: Tissue uptake clearance in mouse kidney at […] mg/kg, iv in presence of 30 umol/kg TPeA. Type of data set: ADME, organism-based. Conditions: in vivo; call rule not given here.
In a further data set the test system is Liver. The experiment in a line: Tissue uptake clearance in mouse liver at […] mg/kg, iv in presence of 30 umol/kg TPeA. Type of data set: ADME, organism-based. To be noted: in vivo.
For data set [2], the target named is T2, Solute carrier organic anion transporter family member 2B1 (Homo sapiens, UniProt O94956).
T2 sequence (O94956 whole entry): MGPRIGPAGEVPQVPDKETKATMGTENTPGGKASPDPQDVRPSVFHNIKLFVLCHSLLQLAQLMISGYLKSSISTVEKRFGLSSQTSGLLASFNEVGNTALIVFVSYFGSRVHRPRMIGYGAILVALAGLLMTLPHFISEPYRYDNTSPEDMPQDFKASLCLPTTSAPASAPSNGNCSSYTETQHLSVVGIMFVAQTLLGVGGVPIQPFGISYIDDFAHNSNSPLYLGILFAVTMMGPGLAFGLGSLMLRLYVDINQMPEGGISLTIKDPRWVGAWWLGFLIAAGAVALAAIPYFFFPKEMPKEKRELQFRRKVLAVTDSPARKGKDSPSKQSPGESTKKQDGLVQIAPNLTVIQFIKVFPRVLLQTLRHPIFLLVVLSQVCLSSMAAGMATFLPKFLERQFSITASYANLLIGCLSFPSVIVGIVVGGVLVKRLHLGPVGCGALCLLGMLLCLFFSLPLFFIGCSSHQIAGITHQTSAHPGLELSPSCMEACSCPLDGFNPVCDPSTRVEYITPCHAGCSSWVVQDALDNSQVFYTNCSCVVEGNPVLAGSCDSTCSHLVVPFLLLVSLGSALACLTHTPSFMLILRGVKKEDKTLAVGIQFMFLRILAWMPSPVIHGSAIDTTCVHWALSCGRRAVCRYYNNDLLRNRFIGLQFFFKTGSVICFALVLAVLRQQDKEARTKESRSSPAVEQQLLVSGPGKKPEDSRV
The experiment in a line: Inhibition of OATP2B1-mediated [3H]estrone-3-sulfate uptake in human OATP2B1 expressing HEK293/PDZK1 cells by scintillation counting. Type of data set: ADME, cell-based. Conditions: human, hek293/pdzk1.

Data set [3] concerns the target T3, Solute carrier organic anion transporter family member 1B1 (Homo sapiens, UniProt Q9Y6L6).
T3 sequence (Q9Y6L6 whole entry): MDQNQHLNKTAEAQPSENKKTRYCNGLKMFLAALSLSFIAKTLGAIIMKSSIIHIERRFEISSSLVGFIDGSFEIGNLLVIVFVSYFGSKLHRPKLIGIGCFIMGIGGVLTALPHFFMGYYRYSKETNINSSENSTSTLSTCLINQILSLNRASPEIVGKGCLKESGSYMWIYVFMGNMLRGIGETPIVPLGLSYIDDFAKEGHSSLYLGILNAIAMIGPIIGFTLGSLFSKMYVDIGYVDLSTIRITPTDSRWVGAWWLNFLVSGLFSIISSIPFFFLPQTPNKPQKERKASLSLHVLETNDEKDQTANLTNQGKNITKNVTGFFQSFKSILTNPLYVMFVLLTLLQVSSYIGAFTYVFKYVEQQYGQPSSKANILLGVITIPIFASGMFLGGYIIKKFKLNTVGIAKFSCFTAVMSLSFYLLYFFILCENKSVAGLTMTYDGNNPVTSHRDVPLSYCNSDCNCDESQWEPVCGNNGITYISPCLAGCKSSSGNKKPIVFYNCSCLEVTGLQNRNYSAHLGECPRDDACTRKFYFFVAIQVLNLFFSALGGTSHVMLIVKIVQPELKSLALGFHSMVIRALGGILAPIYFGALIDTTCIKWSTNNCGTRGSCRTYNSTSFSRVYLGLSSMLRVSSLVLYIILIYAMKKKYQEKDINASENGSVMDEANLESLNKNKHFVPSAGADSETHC
The data set is described as follows: Inhibition of OATP1B1-mediated [3H]estrone-3-sulfate uptake in human OATP1B1 expressing HEK293/PDZK1 cells by scintillation counting. Type of data set: ADME, cell-based. Conditions: human, hek293/pdzk1.

In data set [4] the target is T4, Solute carrier organic anion transporter family member 1B3 (Homo sapiens, UniProt Q9NPD5).
T4 sequence (Q9NPD5 whole entry): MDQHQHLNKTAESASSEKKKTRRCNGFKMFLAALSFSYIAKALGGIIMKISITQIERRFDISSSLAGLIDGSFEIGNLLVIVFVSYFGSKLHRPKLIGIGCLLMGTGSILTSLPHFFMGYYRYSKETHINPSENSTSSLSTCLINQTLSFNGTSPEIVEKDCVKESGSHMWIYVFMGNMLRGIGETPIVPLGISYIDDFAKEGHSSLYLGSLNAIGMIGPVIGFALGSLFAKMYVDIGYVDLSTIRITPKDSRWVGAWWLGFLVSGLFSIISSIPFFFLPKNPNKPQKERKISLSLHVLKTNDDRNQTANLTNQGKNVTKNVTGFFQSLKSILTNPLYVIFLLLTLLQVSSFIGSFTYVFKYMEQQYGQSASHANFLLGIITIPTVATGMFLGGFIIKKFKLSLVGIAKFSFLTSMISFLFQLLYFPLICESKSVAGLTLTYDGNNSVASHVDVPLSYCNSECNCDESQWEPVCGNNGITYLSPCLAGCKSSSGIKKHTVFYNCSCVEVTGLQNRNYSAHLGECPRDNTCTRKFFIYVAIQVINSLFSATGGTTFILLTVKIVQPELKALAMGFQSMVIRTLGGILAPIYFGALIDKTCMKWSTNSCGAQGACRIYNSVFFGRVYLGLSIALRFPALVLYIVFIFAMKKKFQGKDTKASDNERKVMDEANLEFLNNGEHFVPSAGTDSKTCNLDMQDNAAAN
The experiment in a line: Inhibition of OATP1B3-mediated [3H]estradiol 17beta-glucuronide uptake in human OATP1B3 expressing HEK293/PDZK1 cells by scintillation counting. To be noted: human, hek293/pdzk1. Type of data set: ADME, cell-based.

Data set [5] has as its target T5, Organic cation/carnitine transporter 2 (Homo sapiens, UniProt O76082).
T5 sequence (O76082 whole entry): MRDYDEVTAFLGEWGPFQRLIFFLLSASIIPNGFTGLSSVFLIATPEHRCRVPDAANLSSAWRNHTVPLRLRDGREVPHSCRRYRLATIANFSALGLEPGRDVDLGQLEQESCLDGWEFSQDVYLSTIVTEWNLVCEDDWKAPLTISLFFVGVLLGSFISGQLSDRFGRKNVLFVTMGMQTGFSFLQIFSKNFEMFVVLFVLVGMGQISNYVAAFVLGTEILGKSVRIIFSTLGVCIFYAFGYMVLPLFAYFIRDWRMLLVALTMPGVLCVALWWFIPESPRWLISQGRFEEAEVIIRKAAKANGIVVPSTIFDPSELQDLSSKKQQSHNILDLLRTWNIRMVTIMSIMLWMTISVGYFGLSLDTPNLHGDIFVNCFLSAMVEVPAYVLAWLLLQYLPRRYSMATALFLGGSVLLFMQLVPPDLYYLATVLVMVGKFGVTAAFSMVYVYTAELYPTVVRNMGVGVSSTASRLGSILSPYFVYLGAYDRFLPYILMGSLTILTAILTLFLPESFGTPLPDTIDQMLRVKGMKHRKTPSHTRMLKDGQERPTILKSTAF
The experiment in a line: Inhibition of OCTN2-mediated [14C]carnitine uptake in human OCTN2 expressing HEK293/PDZK1 cells by scintillation counting. Type of data set: cell-based.

For `CC[N+](CC)(CC)CC` [TETRYLAMMONIUM], in data set [1], the “inhibition (INH)” value is “Active”.

Regarding `CN(C)C(=N)N=C(N)N` [METFORMIN], the Drug uptake entry in the data set on Kidney and in the data set on Liver was “Not Active” throughout.

With `O=C1OC(c2ccc(O)c(S(=O)(=O)O)c2)(c2ccc(O)c(S(=O)(=O)O)c2)c2c(Br)c(Br)c(Br)c(Br)c21` [SULFOBROMOPHTHALEIN], the “inhibition (INH)” value in data set [2], in data set [3] and in data set [4] was “Active” each time. With `C[N+](C)(C)CC(O)CC(=O)[O-]` (configuration not stated) [CARNITINE], in data set [5], the “inhibition (INH)” value is listed as “Active”.
